Results as given in patent publication US20120309796A1, “BENZOCYCLOHEPTENE ACETIC ACIDS” (priority 2011, published 2012).

Molecular target: T1, human CRTH2 (Homo sapiens, UniProt Q9Y5Y4)
T1 sequence (Q9Y5Y4 1-395): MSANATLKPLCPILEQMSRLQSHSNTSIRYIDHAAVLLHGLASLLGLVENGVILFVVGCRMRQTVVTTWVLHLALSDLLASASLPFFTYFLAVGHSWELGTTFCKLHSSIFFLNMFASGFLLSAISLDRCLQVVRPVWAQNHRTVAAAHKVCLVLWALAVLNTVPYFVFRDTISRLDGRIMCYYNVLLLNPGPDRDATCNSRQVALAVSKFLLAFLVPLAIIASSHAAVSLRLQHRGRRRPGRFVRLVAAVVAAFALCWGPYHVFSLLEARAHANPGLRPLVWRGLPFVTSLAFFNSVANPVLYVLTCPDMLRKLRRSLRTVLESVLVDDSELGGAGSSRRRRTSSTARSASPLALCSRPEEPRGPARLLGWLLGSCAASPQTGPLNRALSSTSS
Assay: Human CRTH2 Receptor Binding Assay (whole cell, [3H]ramatroban competition)
Set-up: two mammalian expression vectors that harbored human CRTH2 and G-alpha16 cDNAs; expressed in transfected cells
Details: CHO-K1 cells expressing human CRTH2 and G-alpha16; 20 nM [3H]ramatroban; 1 hour, room temperature
Excerpt: A whole cell receptor binding assay using [^3H]ramatroban as the competing radioactive ligand was employed to evaluate the compound binding activity to human CRTH2. The radioactive ligand [^3H]ramatroban was synthesized according to Sugimoto et. al. (Eur. J. Pharmacol. 2005, 524, 30-37) to a specific activity of 42 Ci/mmol
A cell line stably expressing human CRTH2 was established by transfecting CHO-K1 cells with two mammalian expression vectors that harbored human CRTH2 and G-alpha16 cDNAs, respectively, using FuGene® 6 transfection reagent (from Roche). Stable clones expressing CRTH2 were selected by staining each clone with BM16 (BD Pharmingen™ from BD Biosciences, a division of Becton, Dickinson and Company), which is a rat monoclonal antibody to human CRTH2. The cells were maintained as monolayer cultures in Ham's F-12 medium containing 10% fetal bovine serum, 100 units/mL penicillin, 100 μg/mL streptomycin, 2 mM glutamine, 0.5 mg/mL G418 (geneticin) for CRTH2, and 0.2 mg/mL hygromycin-B (for G-alpha 16). For whole cell receptor binding assay, the monolayer cells were rinsed once with PBS (phosphate buffered saline), dissociated using ethylenediaminetetraacetate (Versene™ EDTA from Lonza Inc.), and suspended in PBS containing 10 mM MgCl2 and 0.06% BSA (bovine serum albumin) at 1.5×10^6 cells/mL.
The binding reactions (0.2 mL) were performed in 96-well plates at room temperature in PBS containing 1.5×10^5 cells, 10 mM MgCl2, 0.06% BSA, 20 nM [^3H]ramatroban, and test compound at various concentrations. After 1 hour of binding reactions, the cells were harvested on GF™/B filter microplates (microtiter plates with embedded glass fiber from PerkinElmer, Inc.) and washed 5 times with PBS using a Filtermate™ Harvester (a cell harvester that harvests and washes cells from microplates from PerkinElmer, Inc.). The radioactivities bound to the cells were determined using a microplate scintillation counter (TopCount® NXT, from PerkinElmer, Inc.) after adding 50 μL of Microscint™ 20 scintillation fluid (from PerkinElmer, Inc.) to each well of the filter plates. The radioactivity from non-specific binding was determined by replacing compound with 10 μM of 15(R)-15-methyl PGD2 (from Cayman Chemical Company) in the reaction mixtures. The radioactivity bound to the cells in the absence of compound (total binding) was determined by replacing compound with 0.25% of DMSO (dimethyl sulfoxide) in the reaction mixture. Specific binding data were obtained by subtracting the radioactivity of non-specific binding from each binding data.
The IC50 value is defined as the concentration of the tested compound that is required for 50% inhibition of total specific binding. In order to calculate the IC50 value, the percent inhibition data were determined for 7 concentrations for each compound. The percent inhibition for a compound at each concentration was calculated according to the following formula, [1-(specific binding in the presence of compound)/(total specific binding)]×100. The IC50 value was then obtained by fitting the percent inhibition data to a sigmoidal dose-response (4 parameter logistic) model in the XLfit® software Excel add-in program [from ID Business Solutions Ltd., model 205, where F(x)=(A+(B−A)/(1+((C/x)̂D)))].

Q: For `CN(C1CCCCc2c(OCC(=O)O)cccc21)S(=O)(=O)c1ccc(-c2cccc(CCO)c2)cn1` (stereo not shown) [Example 38, [5-({5-[3-(2-Hydroxy-ethyl)-phenyl]-pyridine-2-sulfonyl}-methyl-amino)-6,7,8,9-tetrahydro-5H-benzocyclohepten-1-yloxy]-acetic acid], which IC50 is on record?
A: 2120 nM

Q: Which IC50 does the source give for `CN(C1CCCCc2c(OCC(=O)O)cccc21)S(=O)(=O)c1ccc(-c2ccccc2)cc1` (stereo not shown) [Example 12, {5-[(Biphenyl-4-sulfonyl)-methyl-amino]-6,7,8,9-tetrahydro-5H-benzocyclohepten-1-yloxy}-acetic acid] here?
A: 750 nM

Q: Which IC50 does the source give for `CC(C)c1cccc(-c2ccc(S(=O)(=O)NC3CCCCc4c(OCC(=O)O)cccc43)cc2)c1` (stereo not shown) [Example 19, [5-(3′-Isopropyl-biphenyl-4-sulfonylamino)-6,7,8,9-tetrahydro-5H-benzocyclohepten-1-yloxy]-acetic acid] here?
A: 13 nM

Q: How did the IC50 turn out when `O=C(O)COc1cccc2c1CCCCC2NS(=O)(=O)c1cccc(-c2ccccc2)c1` (stereo not shown) [Example 3, [5-(Biphenyl-3-sulfonylamino)-6,7,8,9-tetrahydro-5H-benzocyclohepten-1-yloxy]-acetic acid] was run?
A: 2610 nM

Q: For `O=C(O)COc1cccc2c1CCCCC2NS(=O)(=O)c1cc(F)cc(C(F)(F)F)c1` (stereo not shown) [Example 6, [5-(3-Fluoro-5-trifluoromethyl-benzenesulfonylamino)-6,7,8,9-tetrahydro-5H-benzocyclohepten-1-yloxy]-acetic acid], which IC50 is on record?
A: 171 nM

Q: Which IC50 does the source give for `COc1cc(C(F)(F)F)cc(S(=O)(=O)N(C)C2CCCCc3c(OCC(=O)O)cccc32)c1` (stereo not shown) [Example 14, {5-[(3-Methoxy-5-trifluoromethyl-benzenesulfonyl)-methyl-amino]-6,7,8,9-tetrahydro-5H-benzocyclohepten-1-yloxy}-acetic acid] here?
A: 106 nM

Q: Which IC50 does the source give for `CS(=O)(=O)c1cc(C(F)(F)F)cc(S(=O)(=O)NC2CCCCc3c(OCC(=O)O)cccc32)c1` (stereo not shown) [Example 17, [5-(3-Methanesulfonyl-5-trifluoromethyl-benzenesulfonylamino)-6,7,8,9-tetrahydro-5H-benzocyclohepten-1-yloxy]-acetic acid] here?
A: 11.4 nM

Q: `CN(C1CCCCc2c(OCC(=O)O)cccc21)S(=O)(=O)c1ccc(-c2ccc(O)cc2)cc1` (stereo not shown) [Example 24, {5-[(4′-Hydroxy-biphenyl-4-sulfonyl)-methyl-amino]-6,7,8,9-tetrahydro-5H-benzocyclohepten-1-yloxy}-acetic acid] was tested. Which IC50 did it give?
A: 987 nM

Q: How did the IC50 turn out when `COc1cc(C(F)(F)F)cc(S(=O)(=O)NC2CCCCc3c(OCC(=O)O)cccc32)c1` (stereo not shown) [Example 13, [5-(3-Methoxy-5-trifluoromethyl-benzenesulfonylamino)-6,7,8,9-tetrahydro-5H-benzocyclohepten-1-yloxy]-acetic acid] was run?
A: 158 nM

Q: Which IC50 does the source give for `CN(C1CCCCc2c(OCC(=O)O)cccc21)S(=O)(=O)c1cc(S(C)(=O)=O)cc(S(C)(=O)=O)c1` (stereo not shown) [Example 11, {5-[(3,5-Bis-methanesulfonyl-benzenesulfonyl)-methyl-amino]-6,7,8,9-tetrahydro-5H-benzocyclohepten-1-yloxy}-acetic acid] here?
A: 33.4 nM

Q: `CN(C1CCCCc2c(OCC(=O)O)cccc21)S(=O)(=O)c1cc(F)cc(C(F)(F)F)c1` (stereo not shown) [Example 7, {5-[(3-Fluoro-5-trifluoromethyl-benzenesulfonyl)-methyl-amino]-6,7,8,9-tetrahydro-5H-benzocyclohepten-1-yloxy}-acetic acid] was tested. Which IC50 did it give?
A: 64.6 nM

Q: Which IC50 does the source give for `CC(=O)c1cc(C(F)(F)F)cc(S(=O)(=O)NC2CCCCc3c(OCC(=O)O)cccc32)c1` (stereo not shown) [Example 15, [5-(3-Acetyl-5-trifluoromethyl-benzenesulfonylamino)-6,7,8,9-tetrahydro-5H-benzocyclohepten-1-yloxy]-acetic acid] here?
A: 3.3 nM

Q: For `CC(=O)c1cc(C(F)(F)F)cc(S(=O)(=O)N(C)C2CCCCc3c(OCC(=O)O)cccc32)c1` (stereo not shown) [Example 16, {5-[(3-Acetyl-5-trifluoromethyl-benzenesulfonyl)-methyl-amino]-6,7,8,9-tetrahydro-5H-benzocyclohepten-1-yloxy}-acetic acid], which IC50 is on record?
A: 5.9 nM
